In patent US20250163044A1, “COMPOUNDS” (PSYLO PTY LTD, priority 2021, published 2025):
pEC50: −log10 of the molar value.

Columns and labels:
C57BL/6J mice = assay: Biotelemetry and head-twitch response (HTR) experiments; assay type: in vivo, Mice (C57BL/6J males); conditions: male C57BL/6 mice, SC, several doses (0.03 to 30 mg/kg)
Source text: Mice (C57BL/6J males) were purchased from the Jackson Laboratory (Bar Harbor, ME, USA) at 5-6 weeks of age and allowed at least 1-2 weeks to acclimate to the NIDA, Intramural Research Program (IRP), animal research facility in Baltimore, MD, USA. The animal facility is fully accredited by the Association for the Assessment and Accreditation of Laboratory Animal Care, and all procedures were approved by the NIDA IRP Animal Care and Use Committee. Mice were initially group housed 3-5 per cage during acclimation and housed in a 12 h light-dark cycle throughout the study, with lights on at 0700 h. Food and water were available ad libitum except during testing. Cohorts of 20-24 mice were used for each test drug. The mice were subjected to experimental testing once every 1-2 weeks for 2-3 months to complete dose-effect curves and antagonist experiments. A minimum of 7 days between treatments was utilized to avoid any tolerance to effects of repeated drug administration. All drug doses represent the weight of the salt dissolved in 0.9% saline vehicle. Mice were tested first in dose-response studies to assess the effects of each compound at doses from 0.03 to 30 mg/kg s.c. and were subsequently tested in antagonist reversal studies utilizing pretreatment with M100907 and WAY100635. All experiments were conducted from 0900 to 1700 local time during the light phase, as sensitivity of rodents to other tryptamine psychedelics is diurnal, with maximal HTR observed in the middle of the light phase. Experiments were run during the light phase also to avoid any potential influence of melatonin receptor activity on HTR as melatonin and related agonists are known to reduce HTR induced by DOI in rats. For each experiment, mice were acclimated to the testing room in their home cage for at least 1 h prior to experimental sessions. Behavioral test sessions were carried out in Tru Scan mouse locomotor arenas equipped with photobeam arrays (Coulbourn Instruments, Holliston, MA, USA), which were modified with cylindrical inserts and transparent floors useful in detecting mouse HTR.
Subcutaneous Temperature Transponder Implants. At least 1 week prior to the start of the experiments, mice received s.c. implanted temperature transponders (14×2 mm, model IPTT-300, Bio Medic Data Systems, Inc., Seaford, DE, USA) under brief isoflurane anesthesia. Mice were single housed post implant for the remainder of the study to protect the transponder from removal by cage mates. Temperature was determined noninvasively using a handheld receiver that is sensitive to signals emitted from the implanted transponders.
Prior to each experiment, mouse body weight and temperature were recorded. Mice were then placed into testing chambers for acclimation. In dose-response studies, after a brief 5 min acclimation, mouse body temperature was recorded for baseline measurement, mice received s.c. injection of test substance or vehicle, and animals were returned to the testing arena for 30 min. During the session, locomotor activity was monitored via photobeam tracking of movements in the horizontal plane to yield distance traveled in centimeter. HTR was monitored by the analysis of GoPro Hero Black 7 video recordings (120 frames per sec and 960p resolution) using a commercially available software package from Clever Sys Inc. (Reston, VA, USA). 82 Post-treatment body temperature values were also recorded, and temperature data are represented as change from pretreatment baseline.
In antagonist reversal experiments, mice received a s.c. injection of either receptor antagonists or vehicle and were returned to the testing chamber for 30 min. During this period, locomotor activity was monitored to examine the potential effects of antagonist treatment on general behavior or movement. At 30 min after antagonist administration, mice were given test drug or vehicle and returned to the chambers for an additional 30 min of video recording used for analyses. […]

Male ICR mice = assay: Acute restraint stress - tail suspension test (TST); assay type: in vivo; conditions: ICR mice after 5 h acute restraint stress, IP, 10 min before test; P-3 3, 10 mg/kg; P-8 3, 10, 30 mg/kg
Protocol: Male ICR mice (23±3 g) were purchased from BioLASCO (Taipei, Taiwan) at 4-5 weeks of age and allowed 5-7 days to acclimate to the animal research facility at Pharmacology Discovery Services (Taipei, Taiwan). Mice were housed in groups of 10 in a large cage (47×25×15 cm) on a 12-hour light cycle (lights on: 0700) and provided ad libitum food and water except during acute restraint stress and tail-suspension testing. Temperature was maintained at 20-24° C., and all rooms (colony and testing rooms) had similar lighting intensity. All aspects of this work including housing, experimentation, and animal disposal were performed in accordance with the “Guide for the Care and Use of Laboratory Animals: Eighth Edition” (The National Academies Press, Washington, DC, 2011) in a facility accredited by the Association for Assessment and Accreditation of Laboratory Animal Care. […]
Tail Suspension Test (TST) Procedure: Mice were individually suspended on the edge of a shelf, 58 cm above a tabletop, using adhesive tape placed approximately 1 cm from the tip of the tail, for a total duration of 7 minutes. Using a stopwatch, the experimenters blinded to treatment groups recorded the duration of immobility (defined as hanging passively and motionless) during the 5 minutes spanning from 2-7 minutes. The data from 0-2 minutes was not recorded. […]

5-HT2B receptor = target: T1, 5-HT2B receptor (Homo sapiens, UniProt P41595); assay: FLIPR Ca2+ flux functional assay, agonist activity at 5-HT2B; assay type: cell-based; conditions: CHO-K1 cells, Ca2+ flux; read-out: 5-HT2B EC50
T1 construct: host or cells: CHO-K1
T1 sequence (P41595 whole entry): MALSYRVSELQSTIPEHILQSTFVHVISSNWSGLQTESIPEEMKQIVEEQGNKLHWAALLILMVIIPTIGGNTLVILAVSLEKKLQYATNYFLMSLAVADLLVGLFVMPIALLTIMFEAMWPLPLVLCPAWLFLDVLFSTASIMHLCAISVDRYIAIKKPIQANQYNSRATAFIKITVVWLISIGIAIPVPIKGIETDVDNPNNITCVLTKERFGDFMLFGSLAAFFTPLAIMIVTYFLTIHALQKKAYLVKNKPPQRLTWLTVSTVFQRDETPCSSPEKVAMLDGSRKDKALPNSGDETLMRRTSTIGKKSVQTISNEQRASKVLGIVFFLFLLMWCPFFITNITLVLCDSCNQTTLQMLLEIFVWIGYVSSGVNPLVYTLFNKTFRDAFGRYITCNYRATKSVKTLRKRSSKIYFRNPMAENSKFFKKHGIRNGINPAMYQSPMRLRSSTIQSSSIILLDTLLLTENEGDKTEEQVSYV
Procedure, shortened: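 Stably transfected cells (HEK293 for 5-HT2A/2C, CHO-K1 for 5-HT2B) loaded 50 min at 37° C with Fluo-4 Direct dye plus 2.5 mM probenecid (final). Compounds tested as 10-point serial dilutions (3-fold; references 4-fold) and calcium fluorescence read on FLIPR Tetra after addition.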

Row | SMILES | Head-twitch response (HTR) (C57BL/6J mice) | Tolerability (temperature, locomotor activity) (C57BL/6J mice) | Immobility time in tail suspension test (Male ICR mice) | pEC50 (5-HT2B receptor)
1 | COc1cnc2[nH]cc(CCN(C)C)c2c1 [Example P-3, 2-(5-methoxy-1H-pyrrolo[2,3-b]pyridin-3-yl)-N,N-dimethylethan-1-amine] | not promoting increased head-twitch response | well-tolerated | decrease the immobility time | –
2 | COc1ccc2[nH]nc(CCN(C)C)c2c1 [Example P-8, 2-(5-methoxy-1H-indazol-3-yl)-N,N-dimethylethan-1-amine] | – | – | decrease the immobility time | < 5.00
